Measured values as given in US8425925B2, “Pesticidal tag” (priority 2007, dated 2013).
Where two headings read alike, the source gives them in different places.

Tests used:
[1] = system: pyrethroid-resistant (PY-Resistant) horn fly (Haematobia irritans irritans) strain; assay type: in vivo
Protocol: (§1) A comparison of ivermectin formulations is made to determine their toxicity to horn fly (Haematobia irritans irritans) strains. Three formulations are tested: ivermectin alone, ivermectin formulated with epoxidized soybean oil (ESO), and ivermectin formulated with piperonyl butoxide (PBO). Both pyrethroid-resistant (PY-Resistant) and pyrethroid-susceptible (PY-Susceptible) horn fly strains are tested. […] See D C Sheppard & N C Hinkle, “A field procedure using disposable materials to evaluate horn fly insecticide resistance,” J. Agric. Entomol. 4:87-89 (1987).
(§2) Table 1 presents the contact toxicity results in units of μg/cm^2, computed using Log-Probit Analysis. See, e.g., V. K. Borooah, Logit and Probit (2002) (Sage Publications, Thousand Oaks, Calif., USA).
(§3) Further tests, similar to those of the Ivermectin tests described above, were performed using Abamectin compositions.

[2] = system: pyrethroid-susceptible (PY-Susceptible) horn fly (Haematobia irritans irritans) strain; assay type: in vivo
Protocol: as §1, §2, §3

[3] = 4-hour exposure, Log-Probit Analysis
[4] = PY-Susceptible, 4-hour exposure, Log-Probit Analysis

Substance: Ivermectin
- Lethal Concentration LC50 [1, 3]: 93.8 μg/cm^2
- Lethal Concentration LC90 [1, 3]: 478.0 μg/cm^2
- Lethal Concentration LC50 [2, 4]: 165.6 μg/cm^2
- Lethal Concentration LC90 [2, 4]: 418.3 μg/cm^2

Substance: Abamectin
- Lethal Concentrations (cell spanning LC50 and LC90) ([1]; 2 hour contact): no mortality
- Lethal Concentrations LC50 ([1]; 4 hour contact): 138.5 microgram/sq. cm
- Lethal Concentrations LC90 ([1]; 4 hour contact): 1,089 microgram/sq. cm
- Lethal Concentrations LC50 ([1]; 8 hour contact): 1.19 microgram/sq. cm
- Lethal Concentrations LC90 ([1]; 8 hour contact): 7.60 microgram/sq. cm
- PY-Susceptible versus PY-Resitant RR50 (resistance ratio) ([2]; 8 hour contact, LC50 of PY-susceptible divided by LC50 of PY-resistant horn flies): 31.64
- PY-Susceptible versus PY-Resitant RR90 (resistance ratio) ([2]; 8 hour contact, LC90 of PY-susceptible divided by LC90 of PY-resistant horn flies): 23.05
- Lethal Concentrations (cell spanning LC50 and LC90) ([2]; PY-Susceptible, 2 hour contact): no mortality
- Lethal Concentrations (cell spanning LC50 and LC90) ([2]; PY-Susceptible, 4 hour contact): no mortality
- Lethal Concentrations LC50 ([2]; PY-Susceptible, 8 hour contact): 37.65 microgram/sq. cm
- Lethal Concentrations LC90 ([2]; PY-Susceptible, 8 hour contact): 175.16 microgram/sq. cm
